pIC50: −log10 of the molar value.
Legend:
[1] = target: T1, PI3K-alpha (Homo sapiens, UniProt P42336); assay: HTRF PI3K biochemical assay, alpha isoform; settings: ratio PI3K-alpha IC50 value / PI3K-delta IC50 value
T1 construct: purchased Upstate; Millipore 14-602

[2] = target: T2, PI3K-delta (Homo sapiens, UniProt O00329); assay: HTRF PI3K biochemical assay, delta isoform; settings: form screened (neutral or TFA salt) given, read-out: PI3Kdelta IC50
T2 construct: purchased Upstate; Millipore 14-604
T2 sequence (O00329 whole entry, canonical isoform): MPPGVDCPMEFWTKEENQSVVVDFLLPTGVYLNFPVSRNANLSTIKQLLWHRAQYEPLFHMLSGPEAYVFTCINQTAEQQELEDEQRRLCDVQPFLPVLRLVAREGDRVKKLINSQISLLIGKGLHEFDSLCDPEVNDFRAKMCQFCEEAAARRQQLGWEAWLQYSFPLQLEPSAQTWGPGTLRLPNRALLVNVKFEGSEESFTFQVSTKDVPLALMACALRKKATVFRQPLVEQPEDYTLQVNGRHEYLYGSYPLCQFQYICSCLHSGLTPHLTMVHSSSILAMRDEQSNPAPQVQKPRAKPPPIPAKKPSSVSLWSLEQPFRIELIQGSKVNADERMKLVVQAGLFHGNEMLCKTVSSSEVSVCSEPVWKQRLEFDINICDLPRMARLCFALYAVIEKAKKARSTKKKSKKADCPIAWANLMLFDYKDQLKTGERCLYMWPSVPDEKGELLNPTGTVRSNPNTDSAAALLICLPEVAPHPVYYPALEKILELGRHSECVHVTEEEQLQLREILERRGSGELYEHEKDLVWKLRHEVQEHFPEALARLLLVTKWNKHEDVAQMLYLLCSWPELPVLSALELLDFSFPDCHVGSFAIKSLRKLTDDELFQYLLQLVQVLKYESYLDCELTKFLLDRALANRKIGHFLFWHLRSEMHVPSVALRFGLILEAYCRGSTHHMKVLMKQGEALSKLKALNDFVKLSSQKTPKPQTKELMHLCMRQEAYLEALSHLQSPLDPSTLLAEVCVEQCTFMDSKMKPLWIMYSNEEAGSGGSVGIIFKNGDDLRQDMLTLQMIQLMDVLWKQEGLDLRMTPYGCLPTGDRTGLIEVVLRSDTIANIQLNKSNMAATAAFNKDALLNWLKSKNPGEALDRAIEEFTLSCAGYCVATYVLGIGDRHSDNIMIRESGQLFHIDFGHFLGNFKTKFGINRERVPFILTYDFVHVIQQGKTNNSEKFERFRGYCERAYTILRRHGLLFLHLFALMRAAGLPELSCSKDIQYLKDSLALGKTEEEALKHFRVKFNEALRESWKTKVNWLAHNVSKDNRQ
T2 sequence (P27986 whole entry partner, canonical isoform): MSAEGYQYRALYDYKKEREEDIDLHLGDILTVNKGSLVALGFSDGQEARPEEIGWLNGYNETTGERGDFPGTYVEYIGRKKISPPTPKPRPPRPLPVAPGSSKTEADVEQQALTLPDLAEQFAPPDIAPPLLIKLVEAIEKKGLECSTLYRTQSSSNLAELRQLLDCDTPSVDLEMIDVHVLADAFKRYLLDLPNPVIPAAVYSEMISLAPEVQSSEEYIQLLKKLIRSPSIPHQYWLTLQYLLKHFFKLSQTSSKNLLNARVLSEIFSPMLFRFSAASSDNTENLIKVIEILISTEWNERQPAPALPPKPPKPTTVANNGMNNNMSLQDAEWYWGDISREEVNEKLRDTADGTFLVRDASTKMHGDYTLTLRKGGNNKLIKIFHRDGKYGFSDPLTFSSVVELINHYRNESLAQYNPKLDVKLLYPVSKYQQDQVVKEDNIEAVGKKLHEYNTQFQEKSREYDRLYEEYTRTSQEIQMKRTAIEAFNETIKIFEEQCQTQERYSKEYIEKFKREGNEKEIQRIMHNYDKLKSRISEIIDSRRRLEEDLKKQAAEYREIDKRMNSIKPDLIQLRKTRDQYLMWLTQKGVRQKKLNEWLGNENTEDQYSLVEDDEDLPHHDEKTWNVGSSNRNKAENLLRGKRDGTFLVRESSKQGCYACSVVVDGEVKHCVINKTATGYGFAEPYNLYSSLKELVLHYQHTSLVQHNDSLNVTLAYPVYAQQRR

T1 sequence (P42336 whole entry, canonical isoform): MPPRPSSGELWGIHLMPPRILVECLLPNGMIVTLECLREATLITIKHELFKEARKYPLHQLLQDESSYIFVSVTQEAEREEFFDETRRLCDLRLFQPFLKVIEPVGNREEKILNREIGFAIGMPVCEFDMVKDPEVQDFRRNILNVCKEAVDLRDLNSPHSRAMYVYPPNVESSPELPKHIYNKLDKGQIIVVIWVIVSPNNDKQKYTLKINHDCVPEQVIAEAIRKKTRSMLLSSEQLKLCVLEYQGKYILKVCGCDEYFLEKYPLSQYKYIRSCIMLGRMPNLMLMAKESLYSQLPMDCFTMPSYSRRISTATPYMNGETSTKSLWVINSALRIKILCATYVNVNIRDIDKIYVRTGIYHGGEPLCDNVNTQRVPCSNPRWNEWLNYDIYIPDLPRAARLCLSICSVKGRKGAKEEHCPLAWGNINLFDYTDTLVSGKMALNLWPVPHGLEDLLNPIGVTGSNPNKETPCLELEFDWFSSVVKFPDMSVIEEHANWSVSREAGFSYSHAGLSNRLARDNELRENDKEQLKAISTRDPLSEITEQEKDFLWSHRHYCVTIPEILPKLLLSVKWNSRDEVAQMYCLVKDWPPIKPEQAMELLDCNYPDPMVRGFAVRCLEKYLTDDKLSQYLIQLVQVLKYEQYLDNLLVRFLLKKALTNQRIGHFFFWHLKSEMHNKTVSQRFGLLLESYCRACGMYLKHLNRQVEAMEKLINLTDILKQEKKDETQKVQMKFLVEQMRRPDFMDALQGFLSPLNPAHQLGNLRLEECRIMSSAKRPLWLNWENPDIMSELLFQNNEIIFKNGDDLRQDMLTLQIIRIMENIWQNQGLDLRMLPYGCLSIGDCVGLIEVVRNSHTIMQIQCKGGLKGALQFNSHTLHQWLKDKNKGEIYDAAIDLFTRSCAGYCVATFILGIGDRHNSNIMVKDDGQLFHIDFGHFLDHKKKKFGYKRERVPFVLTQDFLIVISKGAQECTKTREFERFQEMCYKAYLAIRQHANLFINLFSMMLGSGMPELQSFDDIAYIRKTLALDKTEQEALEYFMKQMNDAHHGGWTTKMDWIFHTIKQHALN
T1 sequence (P27986 whole entry partner, canonical isoform): as the sequence (P27986 whole entry partner, canonical isoform) above

SMILES | Selectivity versus PI3Kalpha [1] | pIC50 [2]
CCn1c(-c2cnc(C)nc2)nc2c(NC3CN(C(=O)C4CC4)CC3(F)F)ncnc21 (single isomer, unassigned) [Compound 2-26, N-[(3S or 3R)-1-(cyclopropylcarbonyl)-4,4-difluoropyrrolidin-3-yl]-9-ethyl-8-(2-methylpyrimidin-5-yl)-9H-purin-6-amine] | >10 | 8.00
CCn1c(-c2cnc(C)nc2)nc2c(N[C@H]3CCN(C(=O)C(C)(C)N)C3)ncnc21 [Compound 2-80, N-[(3S)-1-(2-amino-2-methylpropanoyl)pyrrolidin-3-yl]-9-ethyl-8-(2-methylpyrimidin-5-yl)-9H-purin-6-amine] | >10 | 7.21
CCn1ncc(-c2nc3c(N(C)[C@H]4CCN(C(=O)OC(C)(C)C)C4)ncnc3n2C)c1C [Compound 1-3, (S)-tert-butyl 3-((8-(1-ethyl-5-methyl-1H-pyrazol-4-yl)-9-methyl-9H-purin-6-yl)(methyl)amino)pyrrolidine-1-carboxylate] | >10 | 7.01
CCn1c(-c2cnc(C)nc2)nc2c(NC3CN(C(=O)C4CC4)CC3(C)C)ncnc21 (racemic) [Compound 2-95, (R and S)-N-[1-(cyclopropylcarbonyl)-4,4-dimethylpyrrolidin-3-yl]-9-ethyl-8-(2-methylpyrimidin-5-yl)-9H-purin-6-amine] | >10 | 8.35
CCC(=O)N1CC[C@@H](Nc2ncnc3c2nc(-c2cnn(CC)c2C)n3C)C1 [Compound 2-1, 8-(1-ethyl-5-methyl-1H-pyrazol-4-yl)-9-methyl-N-[(3R)-1-propanoylpyrrolidin-3-yl]-9H-purin-6-amine] | >10 | 7.49
CCn1c(-c2cnc(C)nc2)nc2c(N[C@H]3CCN(C(=O)C4CCOC(C)(C)C4)C3)ncnc21 (mixture of isomers) [Compound 2-20, ((S and R)-2,2-dimethyltetrahydro-2H-pyran-4-yl)((S)-3-((9-ethyl-8-(2-methylpyrimidin-5-yl)-9H-purin-6-yl)amino)pyrrolidin-1-yl)methanone] | >10 | 8.85
Cc1ncc(-c2nc3c(N[C@H]4CCN(C(=O)C5CC5)C4)ncnc3n2CC(F)(F)F)cn1 [Compound 9-5, N-[(3S)-1-(cyclopropylcarbonyl)pyrrolidin-3-yl]-8-(2-methylpyrimidin-5-yl)-9-(2,2,2-trifluoroethyl)-9H-purin-6-amine] | >10 | 6.24
CCn1c(-c2cnc(C)nc2)nc2c(N[C@H]3CC[C@@H](C(=O)OC)C3)ncnc21 [Compound 5-3, methyl (1R,3S)-3-{[9-ethyl-8-(2-methylpyrimidin-5-yl)-9H-purin-6-yl]amino}cyclopentanecarboxyl-ate] | >10 | 7.49
CCC(=O)N1CC[C@H](Nc2ncnc3c2nc(-c2cnn(CC)c2C)n3CC)C1 [Compound 2-15, (S)-1-(3-((9-ethyl-8-(1-ethyl-5-methyl-1H-pyrazol-4-yl)-9H-purin-6-yl)amino)pyrrolidin-1-yl)propan-1-one] | >10 | > 9.00
CCn1c(OC(C)C)nc2c(N[C@H]3CCN(C(=O)C4CC4)C3)ncnc21 [Compound 8-7, N-[(3S)-1-(cyclopropylcarbonyl)pyrrolidin-3-yl]-9-ethyl-8-(1-methylethoxy)-9H-purin-6-amine] | >10 | 7.46
CCn1c(-c2cnc(C)nc2)nc2c(N[C@H]3C[C@H](c4nnc(C)o4)N(C(=O)C4CC4)C3)ncnc21 [Compound 15-14, N-[(3S,5R)-1-(cyclopropylcarbonyl)-5-(5-methyl-1,3,4-oxadiazol-2-yl)pyrrolidin-3-yl]-9-ethyl-8-(2-methylpyrimidin-5-yl)-9H-purin-6-amine] | >10 | 7.41
CCn1c(C(=O)NC2CCCCC2)nc2c(N[C@H]3CCN(C(=O)C4CC4)C3)ncnc21 [Compound 6-14, N-cyclohexyl-6-{[(3S)-1-(cyclopropylcarbonyl)pyrrolidin-3-yl]amino}-9-ethyl-9H-purine-8-carboxamide] | >10 | 7.77
CCn1c(CC2CC2)nc2c(N[C@H]3CCN(C(=O)C4CC4)C3)ncnc21 [Compound 7-1, N-[(3S)-1-(cyclopropylcarbonyl)pyrrolidin-3-yl]-8-(cyclopropylmethyl)-9-ethyl-9H-purin-6-amine] | >10 | 7.33
CCC(=O)N1CC[C@H](Nc2ncnc3c2nc(-c2ccc4cn[nH]c4c2)n3C)C1 [Compound 3-6, (S)-1-(3-((8-(1H-indazol-6-yl)-9-methyl-9H-purin-6-yl)amino)pyrrolidin-1-yl)propan-1-one] | >10 | 8.80
CCn1c(-c2cnc(C)nc2)nc2c(N[C@H]3CCN(C(=O)c4nnsc4C)C3)ncnc21 [Compound 2-71, 9-ethyl-8-(2-methylpyrimidin-5-yl)-N-{(3S)-1-[(5-methyl-1,2,3-thiadiazol-4-yl)carbonyl]pyrrolidin-3-yl}-9H-purin-6-amine] | >10 | 8.38
CCn1c(C(=O)NCC2CC2)nc2c(N[C@H]3CCN(C(=O)C4CC4)C3)ncnc21 [Compound 6-1, 6-{[(3S)-1-(cyclopropylcarbonyl)pyrrolidin-3-yl]amino}-N-(cyclopropylmethyl)-9-ethyl-9H-purine-8-carboxamide] | >10 | 7.70
CCn1c(C(C)C)nc2c(N[C@H]3CCN(C(=O)C4CC4)C3)ncnc21 [Compound 7-5, N-[(3S)-1-(cyclopropylcarbonyl)pyrrolidin-3-yl]-9-ethyl-8-(1-methylethyl)-9H-purin-6-amine] | >10 | 6.89
CCn1c(C#Cc2ccccc2)nc2c(N[C@H]3CCN(C(=O)C4CC4)C3)ncnc21 [Compound 16-1, N-[(3S)-1-(cyclopropylcarbonyl)pyrrolidin-3-yl]-9-ethyl-8-(phenylethynyl)-9H-purin-6-amine] | >10 | 8.72
CCn1c(-c2cnc(C)nc2)nc2c(N[C@H]3C[C@H](CO)N(C(=O)OC(C)(C)C)C3)ncnc21 [Compound 1-20, tert-butyl (2R,4S)-4-{[9-ethyl-8-(2-methylpyrimidin-5-yl)-9H-purin-6-yl]amino}-2-(hydroxymethyl)pyrrolidine-1-carboxylate] | >10 | 7.92
CCn1c(-c2cnc(C)nc2)nc2c(N[C@H]3CCN(C(=O)C4C(C)(C)C4(C)C)C3)ncnc21 [Compound 2-60, 9-ethyl-8-(2-methylpyrimidin-5-yl)-N-{(3S)-1-[(2,2,3,3-tetramethylcyclopropyl)carbon-yl]pyrrolidin-3-yl}-9H-purin-6-amine] | >10 | 8.80
CCn1c(C(=O)N2CCCC2)nc2c(N[C@H]3CCN(C(=O)C4CC4)C3)ncnc21 [Compound 6-8, N-[(3S)-1-(cyclopropylcarbonyl)pyrrolidin-3-yl]-9-ethyl-8-(pyrrolidin-1-ylcarbonyl)-9H-purin-6-amine] | >10 | 7.14
CCn1c(-c2ccc(C(F)(F)F)nc2)nc2c(N[C@H]3CCN(C(=O)N4CCC4)C3)ncnc21 [Compound 12-26, N-[(3S)-1-(azetidin-1-ylcarbonyl)pyrrolidin-3-yl]-9-ethyl-8-[6-(trifluoromethyl)pyridin-3-yl]-9H-purin-6-amine] | >10 | > 9.00
CCn1c(-c2ccc(OC)nc2)nc2c(N[C@H]3CCN(C(=O)C4CC(F)(F)C4)C3)ncnc21 [Compound 3A-8, N-{(3S)-1-[(3,3-difluorocyclobutyl)carbonyl]pyrrolidin-3-yl}-9-ethyl-8-(6-methoxypyridin-3-yl)-9H-purin-6-amine] | >10 | > 9.00
CCn1c(-c2cnc(C)nc2)nc2c(N[C@H]3CC[C@H](C(=O)N(C)C4CC4)C3)ncnc21 [Compound 5-1, (1S,3S)-N-cyclopropyl-3-{[9-ethyl-8-(2-methylpyrimidin-5-yl)-9H-purin-6-yl]amino}-N-methylcyclopentanecarboxamide] | >10 | 7.89
CCn1c(-c2cnc(C)nc2)nc2c(N[C@H]3C[C@H](C(=O)NCCN(C)C)N(C(=O)C4CC4)C3)ncnc21 [Compound 15-8, (4S)-1-(cyclopropylcarbonyl)-N-[2-(dimethylamino)ethyl]-4-{[9-ethyl-8-(2-methylpyrimidin-5-yl)-9H-purin-6-yl]amino}-D-prolinamide] | >10 | 8.06
CCn1c(-c2cnc(C(C)(C)C)s2)nc2c(N[C@H]3CCN(C(=O)OC(C)(C)C)C3)ncnc21 [Compound 1-6, (S)-tert-butyl 3-((8-(2-(tert-butyl)thiazol-5-yl)-9-ethyl-9H-purin-6-yl)amino)pyrrolidine-1-carboxylate] | 8 | > 9.00
CCn1c(-c2cnc(C)nc2)nc2c(N[C@H]3CCN(C(=O)CC(C)(C)O)C3)ncnc21 [Compound 2-30, 4-[(3S)-3-{[9-ethyl-8-(2-methylpyrimidin-5-yl)-9H-purin-6-yl]amino}pyrrolidin-1-yl]-2-methyl-4-oxobutan-2-ol] | >10 | 7.82
CCCn1c(-c2cnc(C)nc2)nc2c(N[C@H]3CCN(C(=O)CC)C3)ncnc21 [Compound 9-2, 8-(2-methylpyrimidin-5-yl)-N-[(3S)-1-propanoylpyrrolidin-3-yl]-9-propyl-9H-purin-6-amine] | >10 | 7.44
CCn1c(-c2cnc(C)nc2)nc2c(N[C@H]3CCN(C(=O)C4CC(O)C4)C3)ncnc21 (mixture of isomers) [Compound 2-63, (cis and trans)-3-{[(3S)-3-{[9-ethyl-8-(2-methylpyrimidin-5-yl)-9H-purin-6-yl]amino}pyrrolidin-1-yl]carbonyl}cyclobutanol] | >10 | > 9.00
